“And” between values parts separate entries of the source, which are not always exact repeats. Equal values may be shown once. “Also recorded” adds a separate entry of the source. Read-outs that look alike come from different tables or passages of the source.

The subject of data set [1] is P14 CD8+ T cells. In kind it is cell-based, mice.
For data set [2], the system named is TCR of naïve P14 CD8+ T cells (TCR:pMHC, H2D^b). The format is binding, mice. To be noted: for mean population 2D affinity (AcKa): naïve CD8+ P14 splenocytes, 50 contact cycles per cell, 3 individual experiments; for 2D affinity, result in words: naïve P14 CD8+ T cells.
Data set [3] deals with P14 CD8+ T cells. The format is cell-based, mice. The note with it: for IRF4 MFI at low peptide doses: P14 CD8+ T cells (Figure 4H).
In data set [4] the test system is P14 TCR with CD8 coreceptor (TCR:pMHC:CD8). In kind it is binding, mice. To be noted: for peak bond lifetime under force, CD8-intact: BFP force-clamp, CD8-intact pMHC, peak of force curve, >1,000 bond lifetimes per curve; for bond lifetime at ~10 pN, CD8-intact: ~10 pN of force, CD8-intact (Figures 3F,G).
Data set [5] relates to TCR and CD8 of naïve P14 CD8+ T cells (TCR:pMHC:CD8, D^b). The format is binding, mice. The note with it: for normalized adhesion bonds, mean bond number (-ln(1-Pa(s))/mpMHC): P14 CD8+ T cells, wild type (CD8-intact) pMHC monomers, 3 individual experiments; for total bond number hierarchy: single P14 T cell probed against all three pMHC (Figure 2B).
A further data set has as its target P14 TCR. To be noted: cited from earlier work; for Kd: SPR.
For a further data set, the system named is pMHC (T-2D^b cell line). The note with it: competition on T-2D^b cell line; versus 9-mer 41C; ref [8] Gairin et al.; cited from earlier work. From the text:
(§1) The question is to what extent loading of MHC affects the T cell response and their biology.

For data set [6], the system named is P14 CD8+ T cells. The format is cell-based, mice. The note with it: for ligand potency: at equivalent peptide doses, not factoring in peptide loading; for %Nur77+: representative of 3 experiments, n = 3-4 mice; for signal strength as measured by Nur77 upregulation: P14 CD8 T cells re-stimulated ex vivo.
Data set [7] deals with P14 TCR (TCR:pMHC, D^b D227K). The format is binding, mice. The note with it: for peak bond lifetime under force, CD8-null: BFP force-clamp, absence of CD8 (CD8-null pMHC), peak of force curve, >1,000 bond lifetimes per curve; for bond lifetime by BFP for the TCR alone: restated range in Discussion; for bond lifetime at ~10 pN, CD8-null: ~10 pN of force, CD8-null (Figures 3D,E).

In data set [8] the test system is polyclonal CD8+ T cells. The format is cell-based, mice. The note with it: for Nur77 MFI: polyclonal CD8 T cells, 1 uM (Figure 6F).
Another data set concerns MHC class I (D^b). To be noted: terminal cysteine; ref [27], [34]-[36]; cited from earlier work.
The test system of data set [9] is polyclonal CD8+ T cells. The format is cell-based, mice.
The conditions of data set [10]: terminal cysteine; ref [27], [34]-[36]; cited from earlier work.
Data set [11] has as its system T cells interacting with dendritic cells. The note with it: peptide pulsed DCs, lymph node; versus 41C; ref Henrickson et al. [36]; cited from earlier work.
From the text: as §1

The mark [12] stands for this setting: Boulter et al., ref [52], read-out: 3D affinity (as restated in Discussion).
Where [13] appears, read: P14 CD8+ T cells, D8 p.i., range of peptide doses.

KAVYNFATCGI [41CGI]: the cytokine production result with P14 CD8+ T cells [1] is recorded as “significantly diminished cytokine production”. In data set [2], the “mean population 2D affinity (AcKa)” value is 1.55E-04 μm^4 and the “2D affinity, result in words” value was “lowest 2D affinity of the three, it still had a relatively high 2D affinity”. Besides, in the data set on P14 CD8+ T cells [3], the “IRF4 MFI at highest peptide dose” value is “did not observe a difference between 41C and 41CGI”; the “IRF4 MFI at low peptide doses” value is “difference in IRF4 MFI”. Besides, the “peak bond lifetime under force, CD8-intact” value in [4] was ~ 1.5 s. Moreover, in [4] (CD8-intact versus CD8-null pMHC), the “fold increase of peak bond lifetime by CD8 contribution” value was 15 fold and ~ 15 fold. In [5], the “normalized adhesion bonds, mean bond number (-ln(1-Pa(s))/mpMHC)” value was 2.93E-02 μm^2 and the “total bond number hierarchy” value amounted to 41M> 41C> 41CGI. In addition, the Kd at P14 TCR (setting [12]) was 3.5 µM. Also, the “efficiency at competing for pMHC” value in the data set with pMHC (T-2D^b cell line) is reported as “six times more efficient”. Further, the ligand potency in the data set with P14 CD8+ T cells [6] worked out at 41M > 41C > 41CGI. Also, in data set [7], the “peak bond lifetime under force, CD8-null” value is ~ 0.1 s. In the data set with polyclonal CD8+ T cells [8], the “Nur77 MFI” value was “not significantly different”.
For KAVYNFATC [41C], the sensitivity to antigen result in the data set on P14 CD8+ T cells [1] (41M versus 41C, in our experiments) was “same sensitivity to antigen”. Further, the “functional responses read out by Nur77, IFNγ and IL-2” value in the data set with P14 CD8+ T cells [1] (Discussion) is given as “larger responses”. In data set [2], the “mean population 2D affinity (AcKa)” value worked out at 6.62E-04 μm^4. Besides, the “IRF4 MFI at highest peptide dose” value in the data set on P14 CD8+ T cells [3] (1 uM peptide, P14 CD8+ T cells, 41C versus 41CGI) is “did not observe a difference between 41C and 41CGI”. Further, the “IRF4 MFI at low peptide doses” value with P14 CD8+ T cells [3] was “difference in IRF4 MFI”. For the same sequence, in [4], the “peak bond lifetime under force, CD8-intact” value is reported as ~ 1.9 s; the “bond lifetime at ~10 pN, CD8-intact” value is “no significant difference in bond lifetime between 41M and 41C”. The “stability in the MHC” value in the data set with MHC class I (D^b) is on record as “decreased stability in the MHC”. Moreover, in data set [5], the “normalized adhesion bonds, mean bond number (-ln(1-Pa(s))/mpMHC)” value is 1.01E-01 μm^2 and the “total bond number hierarchy” value is on record as 41M> 41C> 41CGI. Moreover, the IRF4 expression entry in the data set on polyclonal CD8+ T cells [9] (polyclonal CD8 T cells, 1 uM, 41M versus 41C (Figures 6E-I)) was “only a slight difference between 41M and 41C”. Further, the Kd on P14 TCR (setting [12]) is 2.3 µM. Also, in the data set with P14 TCR (ref [51]), the “bond lifetime by SPR” value is on record as ~ 0.5 s. Moreover, the peptide dimer formation result in data set [10] was “form peptide dimers”. Moreover, in the data set on P14 CD8+ T cells [6] (setting [13]), the “%Nur77+” value is “significantly higher frequencies of Nur77+ CD8+ T cells than those stimulated with 41CGI”. In the data set on P14 CD8+ T cells [6], the “signal strength as measured by Nur77 upregulation” value is on record as “significantly stronger signals than 41CGI stimulated cells” and the ligand potency came to 41M > 41C > 41CGI. Also, in [7], the “peak bond lifetime under force, CD8-null” value is reported as ~ 0.9 s; the “bond lifetime by BFP for the TCR alone” value fell in the range of 0.8 to 0.9 s; the “bond lifetime at ~10 pN, CD8-null” value was “longer bond lifetime than 41M and dramatically more so than 41CGI; also recorded: no significant difference in bond lifetime between 41M and 41C”. The “Nur77 MFI” value in the data set on polyclonal CD8+ T cells [8] was “not significantly different”.
For the sequence KAVYNFATM [41M], in the data set with P14 CD8+ T cells [1], the “double producers of IFNγ and TNF” value is “significantly higher frequency”; the sensitivity to antigen result is “same sensitivity to antigen”; the “triple producers of IFNγ, TNF and IL-2” value is “significantly higher frequency”. Moreover, the IFNγ production result in the data set on P14 CD8+ T cells [1] (P14 cells, range of peptide doses, 6 h ex vivo (Figures 5A,B)) is on record as “produced the most IFNγ”. In addition, the agonist classification result in the data set on P14 CD8+ T cells [1] (by 2D affinity measures and functionality) is recorded as “super agonist peptide variant”. Also, in [2], the “mean population 2D affinity (AcKa)” value was determined as 1.04E-03 μm^4 and the “2D affinity, result in words” value is reported as “highest 2D affinity”. Further, the “IRF4 MFI at low peptide doses” value with P14 CD8+ T cells [3] is “difference in IRF4 MFI”. Besides, in data set [4], the “peak bond lifetime under force, CD8-intact” value is on record as ~ 3.0 s; the “bond lifetime at ~10 pN, CD8-intact” value is “no significant difference in bond lifetime between 41M and 41C”. Further, in [5], the “normalized adhesion bonds, mean bond number (-ln(1-Pa(s))/mpMHC)” value came to 6.40E-01 μm^2 and the “total bond number hierarchy” value turned out to be 41M> 41C> 41CGI. In the data set with polyclonal CD8+ T cells [9], the IRF4 expression entry is “only a slight difference between 41M and 41C”. Moreover, on P14 TCR (ref [50], read-out: KD (3D affinity, SPR)), the Kd was 17 µM. Further, the Kd at P14 TCR (ref [51], read-out: KD (3D affinity, SPR)) was 9.1 µM. Moreover, at P14 TCR (ref [52], read-out: KD (3D affinity, SPR)), the Kd is 2.3 µM. Also, the “bond lifetime by SPR” value with P14 TCR (ref [51]) is recorded as ~ 0.5 s. Further, the “transition to phase two T cell:DC contacts” value in data set [11] is reported as “transitioned more quickly to phase two”. In addition, the “peptide dose at which Nur77 MFI peaks” value with P14 CD8+ T cells [6] (P14 CD8+ T cells re-stimulated ex vivo) came out at 0.31 µM. In the data set on P14 CD8+ T cells [6] (setting [13]), the “Nur77 MFI” value is “higher MFI (peaking at 0.31 uM) than 41C and dramatically more so than 41CGI”; the “%Nur77+” value is reported as “higher percentage of CD8+ T cells re-stimulated with 41M expressed Nur77”. In the data set on P14 CD8+ T cells [6], the “signal strength as measured by Nur77 upregulation” value is “stronger signal than 41C; also recorded: significantly stronger signals than 41CGI stimulated cells” and the ligand potency is on record as 41M > 41C > 41CGI. Moreover, in [7], the “peak bond lifetime under force, CD8-null” value is recorded as ~ 0.8 s; the “bond lifetime by BFP for the TCR alone” value was in the range of 0.8 to 0.9 s; the “bond lifetime at ~10 pN, CD8-null” value is “no significant difference in bond lifetime between 41M and 41C”. For the same sequence, the “frequency of Nur77 expression” value in the data set on polyclonal CD8+ T cells [8] is given as “increased frequencies of Nur77 expression”.

The record behind these values is paper PMC6197077 (Frontiers in Immunology, 2018).
